According to the NIST ThermoML archive (doi:10.1016/j.jct.2015.05.024):

Test: xn = mol fraction of the nth substance listed
Settings: 100 kPa, Liquid; for mass density: Vibrating tube method; for speed of sound: Frequency=5 MHz, Pulse-echo method

OCCOCCOCCO [triethylene glycol] + O
Settings	mass density [kg/m3]	speed of sound [m/s]
308.15 K, x1 = 0.4877	1107.17	–
308.15 K, x1 = 0.5004	1107.43	–
308.15 K, x1 = 0.5739	1108.68	–
308.15 K, x1 = 0.58	1108.77	–
308.15 K, x1 = 0.6465	1109.59	–
308.15 K, x1 = 0.651	1109.63	–
308.15 K, x1 = 0.7008	1110.12	–
308.15 K, x1 = 0.7471	1110.49	–
308.15 K, x1 = 0.7677	1110.64	–
308.15 K, x1 = 0.82	1110.99	–
308.15 K, x1 = 0.8623	1111.23	–
308.15 K, x1 = 0.8792	1111.32	–
308.15 K, x1 = 0.8975	1111.42	–
308.15 K, x1 = 0.9203	1111.54	–
308.15 K, x1 = 0.9514	1111.69	–
308.15 K, x1 = 0.9692	1111.78	–
308.15 K, x1 = 1	1111.92	–
313.15 K, x1 = 0.00059	–	1530.8
313.15 K, x1 = 0.002696	–	1537.9
313.15 K, x1 = 0.006871	–	1551.2
313.15 K, x1 = 0.01006	–	1560.8
313.15 K, x1 = 0.0107	1003.69	–
313.15 K, x1 = 0.01494	–	1574.7
313.15 K, x1 = 0.02047	1013.09	–
313.15 K, x1 = 0.02274	–	1594.6
313.15 K, x1 = 0.02979	–	1610.7
313.15 K, x1 = 0.03584	–	1623
313.15 K, x1 = 0.03972	1028.97	–
313.15 K, x1 = 0.04219	–	1634.6
313.15 K, x1 = 0.04979	1036.07	–
313.15 K, x1 = 0.05045	–	1647.8
313.15 K, x1 = 0.05689	–	1656.8
313.15 K, x1 = 0.06687	–	1668.7
313.15 K, x1 = 0.06996	1048.19	–
313.15 K, x1 = 0.07692	–	1678.3
313.15 K, x1 = 0.08288	–	1683
313.15 K, x1 = 0.09135	–	1688.6
313.15 K, x1 = 0.09262	–	1689.3
313.15 K, x1 = 0.09424	1059.72	–
313.15 K, x1 = 0.1004	–	1693.3
313.15 K, x1 = 0.1079	–	1696.2
313.15 K, x1 = 0.116	–	1698.7
313.15 K, x1 = 0.1201	–	1699.6
313.15 K, x1 = 0.1232	–	1700.2
313.15 K, x1 = 0.1303	–	1701.1
313.15 K, x1 = 0.1343	–	1701.5
313.15 K, x1 = 0.1377	–	1701.6
313.15 K, x1 = 0.1423	–	1701.7
313.15 K, x1 = 0.1481	1076.91	–
313.15 K, x1 = 0.1573	–	1701
313.15 K, x1 = 0.1723	–	1699
313.15 K, x1 = 0.1866	–	1696.2
313.15 K, x1 = 0.2006	1086.71	–
313.15 K, x1 = 0.2037	–	1692.2
313.15 K, x1 = 0.2426	–	1681.2
313.15 K, x1 = 0.2502	1092.5	–
313.15 K, x1 = 0.2794	–	1670.3
313.15 K, x1 = 0.2988	1096.26	–
313.15 K, x1 = 0.3209	–	1658.6
313.15 K, x1 = 0.3492	1098.98	–
313.15 K, x1 = 0.3925	1100.7	–
313.15 K, x1 = 0.403	–	1638.8
313.15 K, x1 = 0.4502	1102.42	–
313.15 K, x1 = 0.4658	–	1626
313.15 K, x1 = 0.4877	1103.29	–
313.15 K, x1 = 0.5004	1103.55	–
313.15 K, x1 = 0.5676	–	1608
313.15 K, x1 = 0.5739	1104.8	–
313.15 K, x1 = 0.58	1104.89	–
313.15 K, x1 = 0.6465	1105.71	–
313.15 K, x1 = 0.651	1105.76	–
313.15 K, x1 = 0.6969	–	1590.8
313.15 K, x1 = 0.7008	1106.24	–
313.15 K, x1 = 0.7471	1106.61	–
313.15 K, x1 = 0.7677	1106.76	–
313.15 K, x1 = 0.82	1107.11	–
313.15 K, x1 = 0.8623	1107.35	–
313.15 K, x1 = 0.8694	–	1577.9
313.15 K, x1 = 0.8792	1107.44	–
313.15 K, x1 = 0.9455	–	1572.9
313.15 K, x1 = 1	–	1569.1
